Series [1] in a line: Penetration of 14C AWD 12-281 through murine back skin (Franz diffusion cell). In kind it is in vitro ADME, mouse. How it is done: FIG. 1: Cutaneous permeation of ^14C AWD 12-281 measured using a “Franz” diffusion cell and murine back skin. Activity of ^14C AWD 12-281 was measured in […] during 360 min incubation. Results of two independent experiments. 15 μl (110322970 dpm) of ^14C AWD 12-281 (dissolved in acetone/DMSO 1:1) was applied to the shaved skin.
The ability of ^14C AWD 12-281 to penetrate through murine back skin was tested in a diffusion cell (Franz cell). Dry shaved murine back skin was set onto the diffusion cell so that 1.5 cm (diameter) of the dermal side were in contact with warmed (34° C.) buffer (bovine serum). 15 μl (110322970 dpm) of ^14C AWD 12-281 (dissolved in acetone/DMSO 1:1) were applied to the shaved skin. Samples were taken 15, 60, 120, 180, 240, 300, 360 min and the radioactivity was measured in a β counter (Beckman, Munich, Germany). The experiment was performed twice.

Series [2] deals with sensitized Brown Norway rats. The conditions noted are these: late phase airway reaction to antigen; Kuss et al., 2002; cited from earlier work.
For the next series, the system named is interleukin 6. Nature of the series: IL-6 in homogenized mouse ears after TDI challenge (ELISA). In kind it is in vivo, BALB/c-mice. How it is done:
One part of the collected ears was fixed in 4% formaldehyde for histological section and stained with haematoxylin-eosin with respect to dermal thickness and granulocyte accumulation. These parameters were measured in 10 fields at 40 times magnification. The remaining tissue was shock-frozen and stored in liquid nitrogen immediately after sampling. For the determination of biochemical parameters, the mice ears were homogenized under liquid nitrogen. The homogenates were taken in 200 μl RPMI 1640 medium and the protease inhibitor Pefabloc® (1 mmol) was added and the samples were mixed intensively. After centrifugation (10000 g, 10 min, 4° C.), the supernatant was collected and the protein content was determined. The samples were stored at −80° C. until the cytokines were determined. Interleukin (IL) 4, IL-6 and MIP-2 were measured in the samples by ELISA using commercially available kits according to manufacturers instructions.

Where “and” joins values, the source holds several entries; their conditions need not be identical. Equal values may be shown once. Entries after “also recorded” stand apart in the source; their conditions may differ.

Regarding `O=C(Nc1c(Cl)cncc1Cl)C(=O)c1cn(Cc2ccc(F)cc2)c2ccc(O)cc12` [AWD 12-281, N-(3,5-Dichloro-4-pyridinyl)-2-[1-(4-fluoro-benzyl)-5-hydroxy-1 H-indol-3-yl]-2-oxoacetamide], the “amount of radioactivity measured in buffer, % of the total activity (cumulative absorption)” value in series [1] (14C AWD 12-281 in acetone/DMSO 1:1 on shaved murine back skin, 360 min (6 h) after application, two independent experiments) was 0.22% and 0.08%. For the same compound, the “absorption compared to hydrocortisone” value in series [1] (AWD 12-281 murine skin after 6 h vs hydrocortisone in human skin in Franz cells (Hueber et al., 1994)) is “tenfold higher absorption compared to hydrocortisone”. The “accumulation of eosinophils in bronchoalveolar lavage” value in series [2] was “significantly reduced the accumulation of eosinophils”. The “concentration of interleukin 6 in mouse skin” value in the series with interleukin 6 (24 h after TDI challenge, AWD 12-281 3%, rechallenge) is on record as “inhibited this response significantly”. Besides, the “concentration of interleukin 6 in homogenized mouse ears” value with interleukin 6 (24 h after TDI challenge, topical 2 h before challenge, AWD 12-281 1%, cilomilast 3%, diflorasone 0.05%) is listed as “weak significantly; also recorded: inhibited this response significantly; also recorded: only a slight effect”. Also, in the series on interleukin 6 (AWD 12-281 3%, cilomilast 3%, diflorasone 0.05%, 24 h after TDI challenge), the “IL-6, mean inhibition (%) of the TDI induced synthesis” value came out at 52%. Moreover, the IL-6 in the series on interleukin 6 (AWD 12-281 3%, homogenized mouse ears 24 h after TDI challenge (rechallenge), vehicle control 89 ± 5, mean ± s.e.) amounted to 42 ± 6 pg/400 µg protein.

Source of the values: patent US20040038958A1, “Topical treatment of skin diseases” (priority 2002, published 2004).
